Experimental data as given in PubChem BioAssay AID488881 (Sanford-Burnham Center for Chemical Genomics, 2010).
Calls of active or inactive are those of the source.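 How the source made its calls: active means mean EC50 below 10 µM; inactive means the rest.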

Molecular target: Type-1 angiotensin II receptor (Homo sapiens) (UniProt P30556)
Assay: AGTR1 activation selectivity check – cell-based, CHO-K1 PathHunter, luminescence, selectivity assay for APJ agonist project, SAR follow-up (AID 488881)
Conditions: CHO-K1 AGTR1 PathHunter beta-arrestin

Sequence of Type-1 angiotensin II receptor (Homo sapiens) (P30556 whole entry, looked up): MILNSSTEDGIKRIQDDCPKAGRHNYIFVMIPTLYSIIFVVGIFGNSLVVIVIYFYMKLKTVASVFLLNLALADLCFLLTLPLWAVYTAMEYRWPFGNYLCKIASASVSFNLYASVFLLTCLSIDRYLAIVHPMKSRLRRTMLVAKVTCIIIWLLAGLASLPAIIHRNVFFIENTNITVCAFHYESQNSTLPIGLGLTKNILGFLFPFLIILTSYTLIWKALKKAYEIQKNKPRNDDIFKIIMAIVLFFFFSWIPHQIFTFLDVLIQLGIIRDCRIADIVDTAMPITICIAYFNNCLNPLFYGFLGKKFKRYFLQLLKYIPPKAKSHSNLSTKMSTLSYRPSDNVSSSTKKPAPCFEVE

`CCSc1nc(O)c(CC)c(=O)n1C(C)CC` (configuration not stated) was tested, and the EC50 was > 79 µM (inactive).
`Cc1ccc(S(=O)(=O)Nc2nc(-c3ccccc3)cs2)cc1` was tested, and the EC50 was > 79 µM (inactive).
With `CC1=C/C(=N\OS(=O)(=O)c2ccc(C)cc2)C(C)=CC1=O` the EC50 was > 79 µM (inactive).
In the case of `CC1=CC(=NOS(=O)(=O)c2ccccc2)C(C(C)C)=CC1=O`, the EC50 is reported as > 79 µM (inactive).
`CC1=C/C(=N/OS(=O)(=O)c2ccc(C)cc2)C=CC1=O` was tested, and the EC50 was > 79 µM (inactive).
`Cc1cc(C)n2nc3nc(N4CCOCC4)nc(-c4ccccc4)c3c2n1` was tested, and the EC50 was > 79 µM (inactive).
For `CC1=CC(=NOS(=O)(=O)c2ccc(C)cc2)C=C(C)C1=O`, the EC50 was > 79 µM (inactive).
For `CCc1c(O)nc(SC(C)CC)n(C(C)CC)c1=O` (configuration not stated), the EC50 was > 79 µM (inactive).
`CC1=C(C)C(=NOS(=O)(=O)c2ccc(C)cc2)C=CC1=O` was tested, and the EC50 was > 79 µM (inactive).
With `CN(C)CCSc1nc(O)c(-c2ccccc2)c(=O)n1-c1ccccc1` the EC50 was > 79 µM (inactive).
For `CCc1c(O)n(C2CCCCC2)c(=S)[nH]c1=O`, the EC50 was > 79 µM (inactive).
In the case of `CCc1c(O)nc(SCc2ccccc2)n(C(C)CC)c1=O` (configuration not stated), the EC50 is reported as > 79 µM (inactive).
`CCSc1nc(O)c(CC)c(=O)n1C1CCCCC1` was tested, and the EC50 was > 79 µM (inactive).
`CC1=C/C(=N/OS(=O)(=O)c2ccccc2)C(C)=CC1=O` was tested, and the EC50 was > 79 µM (inactive).
With `C=CCSc1nc(O)c(CC)c(=O)n1-c1ccc(C)cc1` the EC50 was > 79 µM (inactive).
For `CCCCSc1nnc(NC(=O)CSc2nc3ncccc3[nH]2)s1`, the EC50 was > 79 µM (inactive).
In the case of `C=CCn1c(SCc2ccccc2)nc(O)c(CC)c1=O`, the EC50 is reported as > 79 µM (inactive).
For `CC1=C/C(=N/OS(=O)(=O)c2ccc(C)cc2)C(C(C)C)=CC1=O`, the EC50 was > 79 µM (inactive).
With `COc1ccc(S(=O)(=O)ON=C2C=C(C)C(=O)C(C)=C2)cc1` the EC50 was > 79 µM (inactive).
In the case of `CC1=CC(=NOS(=O)(=O)c2ccccc2)C=CC1=O`, the EC50 is reported as > 79 µM (inactive).
With `CCc1c(O)nc(SC)n(C2CCCCC2)c1=O` the EC50 was > 79 µM (inactive).
For `CC1=C/C(=N\OS(=O)(=O)c2ccc(Cl)cc2)C=CC1=O`, the EC50 was > 79 µM (inactive).
In the case of `CC1=CC(=O)C=C(C)C1=NOS(=O)(=O)c1ccccc1`, the EC50 is reported as > 79 µM (inactive).
`O=S(=O)(Nc1nc(-c2ccccc2)cs1)c1ccc(Br)cc1` was tested, and the EC50 was > 79 µM (inactive).
For `CCc1c(O)nc(SCc2ccccc2)n(C2CCCCC2)c1=O`, the EC50 was > 79 µM (inactive).
With `CC1=CC(=NOS(=O)(=O)c2ccccc2)C=C(C)C1=O` the EC50 was > 79 µM (inactive).
In the case of `CC1=CC(=O)C(C(C)C)=CC1=NOS(=O)(=O)c1ccccc1`, the EC50 is reported as > 79 µM (inactive).
For `CCc1c(O)nc(SC)n(C(C)CC)c1=O` (configuration not stated), the EC50 was > 79 µM (inactive).
For `C=CCSc1nc(O)c(CC)c(=O)n1C1CCCCC1`, the EC50 was > 79 µM (inactive).
With `CC1=CC(=O)C(C(C)C)=C/C1=N/OS(=O)(=O)c1ccccc1` the EC50 was > 79 µM (inactive).
With `O=S(=O)(Nc1nc(-c2ccccc2)cs1)c1ccc(Cl)cc1` the EC50 was > 79 µM (inactive).
For `Cc1ccc(S(=O)(=O)ON=C2C=CC(=O)C=C2)cc1`, the EC50 was > 79 µM (inactive).
With `CC1=CC(=O)C=C/C1=N\OS(=O)(=O)c1ccc(C)cc1` the EC50 was > 79 µM (inactive).
With `C=CCSc1nc(O)c(CC)c(=O)n1C(C)CC` (configuration not stated) the EC50 was > 79 µM (inactive).
With `CCN1/C(=C/C(=O)c2sc(=S)n(CC)c2O)Sc2ccccc21` the EC50 was > 79 µM (inactive).
For `CC1=CC(=NOS(=O)(=O)c2ccc(Cl)cc2)C=C(C)C1=O`, the EC50 was > 79 µM (inactive).
With `COc1ccc(S(=O)(=O)O/N=C2\C=C(C(C)C)C(=O)C=C2C)cc1` the EC50 was > 79 µM (inactive).
For `CSc1nc(=O)cc(N)n1-c1ccc(C)cc1`, the EC50 was > 79 µM (inactive).
With `COc1ccccc1-n1c(SCC(=O)c2ccccc2)nc(O)cc1=O` the EC50 was > 79 µM (inactive).
`CCCCSc1nc(O)c(CC)c(=O)n1C1CCCCC1` was tested, and the EC50 was > 79 µM (inactive).
With `CCN1/C(=C\C=C2/SC(=S)N(C)C2=O)Sc2ccccc21` the EC50 was > 79 µM (inactive).
In the case of `CCCSc1nc(O)c(CC)c(=O)n1C(C)CC` (configuration not stated), the EC50 is reported as > 79 µM (inactive).
